# According to article PMC10485820 (European Journal of Pharmaceutical Sciences, 2023):
# Read-outs that look alike come from different tables or passages of the source.
# What was measured:
# [1] = Physicochemical parameters (log P, pKa) from experimental outcomes; details: Measured (in vitro)
# Text: (§1) The development of the DLM was complex.
# [2] = Blood-to-plasma partition ratio and fraction unbound in plasma; assay type: in vitro ADME; details: Measured (in vivo)
# Text: as §1
# [3] = HSK7653 PBPK model development and fitting (SimCYP); design: species or system human; details: Fitted (based on in vivo data)
# Text: as §1
# In this manuscript, we constructed the ADAM absorption model using the dissolution profile method and DLM method, respectively. The same disposition model was severally coupled with these two different absorption models to capture the absorption and disposition characteristics of HSK7653 in vivo. Here, we collected the CLint_hep and CLR from in vitro experimental results and in vivo clinical trial data without further optimization. […] Therefore, the disposition model of HSK7653 could accurately capture the elimination characteristics of HSK7653 in vivo. […] Furthermore, the models were also validated with PK data from a multiple dose clinical study (CTR20191549). […] Accordingly, the mechanism driven HSK7653 PBPK model can be used to simulate untested scenarios in specific populations.
# [4] = Bioavailability in rats (unpublished); details: rat, in vivo, oral
# OAT1 = biological target: T1, OAT1 (Homo sapiens, UniProt Q4U2R8); assay: Preclinical transporter substrate assessment (unpublished); assay type: in vitro ADME
# T1 sequence (Q4U2R8 1-563): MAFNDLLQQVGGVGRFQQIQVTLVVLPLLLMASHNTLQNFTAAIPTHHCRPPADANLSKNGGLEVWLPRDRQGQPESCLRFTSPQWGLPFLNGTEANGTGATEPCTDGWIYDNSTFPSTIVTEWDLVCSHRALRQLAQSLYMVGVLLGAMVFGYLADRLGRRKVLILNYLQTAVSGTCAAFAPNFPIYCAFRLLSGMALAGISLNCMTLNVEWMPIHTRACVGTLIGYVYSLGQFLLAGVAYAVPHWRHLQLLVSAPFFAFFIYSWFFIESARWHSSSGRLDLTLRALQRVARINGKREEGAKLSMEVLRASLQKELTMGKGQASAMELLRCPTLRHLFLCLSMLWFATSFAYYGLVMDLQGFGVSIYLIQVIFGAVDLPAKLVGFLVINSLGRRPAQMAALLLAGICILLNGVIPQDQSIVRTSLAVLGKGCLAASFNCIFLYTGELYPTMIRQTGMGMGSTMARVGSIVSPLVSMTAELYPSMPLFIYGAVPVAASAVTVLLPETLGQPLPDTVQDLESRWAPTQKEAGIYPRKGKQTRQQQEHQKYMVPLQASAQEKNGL
# [5] = biological target: T2, breast cancer resistance protein (Homo sapiens, UniProt Q9UNQ0); assay: as above; assay type: in vitro ADME
# T2 sequence (Q9UNQ0 1-655): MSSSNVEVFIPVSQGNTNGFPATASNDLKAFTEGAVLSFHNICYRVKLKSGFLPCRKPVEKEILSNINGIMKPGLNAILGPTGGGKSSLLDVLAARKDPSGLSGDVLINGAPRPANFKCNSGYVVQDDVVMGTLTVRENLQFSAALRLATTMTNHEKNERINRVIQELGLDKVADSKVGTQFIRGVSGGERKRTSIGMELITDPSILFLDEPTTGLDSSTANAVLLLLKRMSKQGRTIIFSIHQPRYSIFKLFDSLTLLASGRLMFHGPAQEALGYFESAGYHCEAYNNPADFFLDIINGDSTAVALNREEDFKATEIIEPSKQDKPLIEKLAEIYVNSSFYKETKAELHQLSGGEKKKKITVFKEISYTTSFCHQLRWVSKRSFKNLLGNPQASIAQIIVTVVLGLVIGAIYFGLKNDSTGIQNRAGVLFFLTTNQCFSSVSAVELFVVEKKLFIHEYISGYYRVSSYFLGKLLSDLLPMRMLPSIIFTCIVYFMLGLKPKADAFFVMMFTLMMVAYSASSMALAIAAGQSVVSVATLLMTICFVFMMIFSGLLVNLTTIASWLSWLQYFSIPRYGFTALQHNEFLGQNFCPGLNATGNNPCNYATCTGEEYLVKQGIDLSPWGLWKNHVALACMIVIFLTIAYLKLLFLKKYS
# MATE2-K = MATE2-K (Homo sapiens, UniProt Q86VL8); assay: as above; assay type: in vitro ADME
# P-glycoprotein (P-gp) = P-glycoprotein (P-gp) (Homo sapiens, UniProt P08183); assay: as above; assay type: in vitro ADME
# [6] = Single ascending dose clinical study in Chinese healthy volunteers (CTR20180791): pharmacokinetics; assay type: in vivo, human; details: for AUC / Cmax / clearance / Vd/F: human, in vivo, oral, Chinese healthy volunteers; for clearance: read-out: CL Obs (converted); for Vd/F: read-out: VZ/F Obs
# [7] = Predicted by SIVA from dissolution profile in FaSSGF
# Text: Based on the results of the two-stage biorelevant dissolution test (see Fig. 4 in 3.2 section), the precipitation parameters in the DLM were not assessed, and the critical supersaturation ratio (CSC) and precipitation rate constant (PRC) were set to the minimum values, respectively.
# Furthermore, solubility parameters, representing the influence of pH and bile salts on the solubility, were estimated by Eq. (3) according to the experimental results.
# Accordingly, it was unnecessary to evaluate the precipitation parameters for the development of DLM, which (CSC and PCR) were set to minimum values in DLM. Most importantly, the dissolution parameters, such as heff and DLMs, were estimated by Eq. (4) from the dissolution profile in 300 mL FaSSGF medium. Meanwhile, the disintegration lag time of the formulation was evaluated with the method of Weibull function, so that the dissolution profile could be captured by Eq. (4).
# in vitro = details: human
# Protocol: Reactions were stopped by removing the plates from the incubator and mixing the incubation solution with 600 μL of ice-cold stop solution (acetonitrile) at the corresponding sampling time points.
# [8] = 10 mg, 10 mg single dose, fasted
# [9] = 25 mg, 25 mg single dose, fasted
# [10] = 50 mg, 50 mg single dose, fasted
# [11] = 100 mg, 100 mg single dose, fasted
# [12] = 150 mg, 150 mg single dose, fasted
# Chain of MATE2-K (Q86VL8 1-566 isoform Q86VL8-3, species assumed): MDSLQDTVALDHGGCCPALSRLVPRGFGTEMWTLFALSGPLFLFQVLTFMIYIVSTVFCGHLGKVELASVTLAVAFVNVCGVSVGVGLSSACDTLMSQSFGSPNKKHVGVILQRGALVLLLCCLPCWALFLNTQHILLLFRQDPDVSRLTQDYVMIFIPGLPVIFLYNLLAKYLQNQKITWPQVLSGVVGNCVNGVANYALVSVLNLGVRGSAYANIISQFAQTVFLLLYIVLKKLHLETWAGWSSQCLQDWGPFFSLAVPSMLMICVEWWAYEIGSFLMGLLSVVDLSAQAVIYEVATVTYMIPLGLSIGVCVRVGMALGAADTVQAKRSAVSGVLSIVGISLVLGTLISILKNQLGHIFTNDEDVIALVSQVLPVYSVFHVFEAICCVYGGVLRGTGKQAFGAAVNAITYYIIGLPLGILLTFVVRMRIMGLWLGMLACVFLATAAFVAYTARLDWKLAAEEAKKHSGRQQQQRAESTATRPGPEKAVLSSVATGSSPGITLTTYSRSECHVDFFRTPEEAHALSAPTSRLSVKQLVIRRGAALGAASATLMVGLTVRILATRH
# Chain of P-glycoprotein (P-gp) (P08183 whole entry): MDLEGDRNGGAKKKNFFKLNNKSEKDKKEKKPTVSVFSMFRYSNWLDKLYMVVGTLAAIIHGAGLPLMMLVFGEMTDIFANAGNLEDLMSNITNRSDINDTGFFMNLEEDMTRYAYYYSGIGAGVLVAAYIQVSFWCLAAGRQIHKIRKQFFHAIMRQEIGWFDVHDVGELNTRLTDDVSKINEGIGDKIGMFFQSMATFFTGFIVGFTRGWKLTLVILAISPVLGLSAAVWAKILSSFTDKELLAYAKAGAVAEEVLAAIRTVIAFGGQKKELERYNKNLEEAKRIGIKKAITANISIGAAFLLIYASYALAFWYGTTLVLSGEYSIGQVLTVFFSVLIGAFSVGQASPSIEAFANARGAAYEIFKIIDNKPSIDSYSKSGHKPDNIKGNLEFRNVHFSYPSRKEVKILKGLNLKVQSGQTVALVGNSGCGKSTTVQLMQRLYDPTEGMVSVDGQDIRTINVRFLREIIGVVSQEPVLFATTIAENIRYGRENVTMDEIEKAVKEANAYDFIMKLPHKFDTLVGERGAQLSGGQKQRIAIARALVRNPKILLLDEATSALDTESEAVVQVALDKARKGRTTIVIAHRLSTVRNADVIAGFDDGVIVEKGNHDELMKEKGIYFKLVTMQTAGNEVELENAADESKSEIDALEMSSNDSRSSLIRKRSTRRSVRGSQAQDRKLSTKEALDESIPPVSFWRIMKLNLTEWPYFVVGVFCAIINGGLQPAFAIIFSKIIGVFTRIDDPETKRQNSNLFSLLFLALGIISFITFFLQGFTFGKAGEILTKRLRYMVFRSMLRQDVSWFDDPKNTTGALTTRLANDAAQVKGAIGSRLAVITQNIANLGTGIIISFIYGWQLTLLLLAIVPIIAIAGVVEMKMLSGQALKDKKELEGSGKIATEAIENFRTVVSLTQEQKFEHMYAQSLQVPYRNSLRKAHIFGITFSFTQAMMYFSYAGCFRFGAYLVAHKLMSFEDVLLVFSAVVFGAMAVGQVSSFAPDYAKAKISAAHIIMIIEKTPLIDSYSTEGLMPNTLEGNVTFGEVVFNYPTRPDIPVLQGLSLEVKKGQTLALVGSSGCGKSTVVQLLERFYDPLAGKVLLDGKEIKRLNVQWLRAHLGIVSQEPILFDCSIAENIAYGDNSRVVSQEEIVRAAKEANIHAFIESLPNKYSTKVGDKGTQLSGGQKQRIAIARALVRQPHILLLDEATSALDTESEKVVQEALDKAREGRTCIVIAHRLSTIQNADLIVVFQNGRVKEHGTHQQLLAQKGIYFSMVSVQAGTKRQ
compound,measurement,setting,value
CS(=O)(=O)n1cc2c(n1)CN([C@@H]1C[C@H](N)[C@@H](c3cc(F)ccc3F)O[C@@H]1C(F)(F)F)C2 [HSK7653],logP,[1],1.42
same,pKa,[1]; Monoprotic base,6.75
same,fraction unbound,[2],0.143
same,Biliary CLint (CLint_bile),[3],0.025 μL/min/10^6
same,bioavailability,[4],94.5%
same,Transporter substrate assessment,OAT1,not a common transport substrate
same,Transporter substrate assessment,[5],not a common transport substrate
same,Transporter substrate assessment,MATE2-K,not a common transport substrate
same,Transporter substrate assessment,P-glycoprotein (P-gp),not a common transport substrate
same,Increase in AUC under the fed state compared with the fasted state,[6]; clinical study,3%
same,AUC,"[6]; 5 mg, 5 mg single dose, fasted",8980 ng·h/mL
same,Cmax,"[6]; 5 mg, 5 mg single dose, fasted",101 ng/mL
same,clearance,"[6]; 5 mg, 5 mg single dose, fasted",9.67 mL/min
same,Vd/F,"[6]; 5 mg, 5 mg single dose, fasted",1.65 L/kg
same,AUC,[6]; [8],17700 ng·h/mL
same,Cmax,[6]; [8],237 ng/mL
same,clearance,[6]; [8],9.67 mL/min
same,Vd/F,[6]; [8],1.71 L/kg
same,AUC,[6]; [9],40500 ng·h/mL
same,Cmax,[6]; [9],413 ng/mL
same,clearance,[6]; [9],10.2 mL/min
same,Vd/F,[6]; [9],1.52 L/kg
same,AUC,[6]; [10],90400 ng·h/mL
same,Cmax,[6]; [10],981 ng/mL
same,clearance,[6]; [10],9.67 mL/min
same,Vd/F,[6]; [10],1.26 L/kg
same,AUC,"[6]; 50 mg, 50 mg single dose, fed",92900 ng·h/mL
same,Cmax,"[6]; 50 mg, 50 mg single dose, fed",834 ng/mL
same,clearance,"[6]; 50 mg, 50 mg single dose, fed",9.5 mL/min
same,Vd/F,"[6]; 50 mg, 50 mg single dose, fed",1.37 L/kg
same,AUC,[6]; [11],218000 ng·h/mL
same,Cmax,[6]; [11],2130 ng/mL
same,clearance,[6]; [11],8.33 mL/min
same,Vd/F,[6]; [11],1.07 L/kg
same,AUC,[6]; [12],269000 ng·h/mL
same,Cmax,[6]; [12],3330 ng/mL
same,clearance,[6]; [12],11 mL/min
same,Vd/F,[6]; [12],1.13 L/kg
same,Dose linearity,[6]; within the currently selected therapeutic dose range,dose linear
same,DLM Scalar values,[7]; All segments,3.009
same,heff cut-off value,[7]; Hintz-Johnson,36.345 μm
same,half-life at 0.05 μM,in vitro; primary human plated hepatocytes,12.2 days
same,hepatocyte CLint at 0.05 μM,"in vitro; primary plated hepatocytes (cryopreserved, 10 donors mixed)",0.056 µL/min/1e6 cells
